Results from patent US11033518B2, “Pharmaceutical composition containing niclosamide for treating axin-GSK3 interaction-related diseases” (BAOBAB PHARM CO., LTD., priority 2017, dated 2021).

Assays:
[1] = system: HCT116, SW480 and DLD-1 cells; experiment: Cell mobility of colorectal cancer cells through basement membrane; type: cell-based; settings: nM level, 48 hours
Method: At first, the effect on the cell mobility of colorectal cancer cells of niclosamide was confirmed. Colorectal cancer cell lines HCT116, SW480 and DLD-1 cells were cultured under the condition with or without niclosamide for 48 hours, and then the upper part of the membrane was rubbed with a cotton swab and the number of movements of cells inserted into the basement membrane was stained with 0.25% crystal violet and counted. Cells were counted in five random fields.

[2] = system: TCF/LEF transcriptional activity; experiment: TCF/LEF reporter (Topflash) dual luciferase assay in colorectal cancer cells; type: cell-based; settings: 0, 0.125, 0.25, 0.5 nM; as concentration increased
Method: At first, after treating niclosamide of nM units at concentrations of 0 nM, 0.125 nM, 0.25 nM and 0.5 nM to colorectal cancer cells for 24 hours, the beta-catenin (β-catenin) activity and TCF/LEF reporter (Topflash) activity of colorectal cancer cells were measured.
The TCF/LEF transcriptional activity was carried out by transformation with 100 ng of a reporter gene and 1 ng of transfection control pRL-SV40-Renilla. The reporter activity was measured with a dual luciferase assay system (Promega) in 48 hours after infection, and was standardized by measuring the co-transformed renilla activity, and the reporter gene activity was represented by light units in proportion to light units obtained from the negative control group.

[3] = system: colorectal cancer cell lines HCT116, SW480 and DLD-1; experiment: Trypan blue cell viability / apoptosis of colorectal cancer cells; type: cell-based; settings: 48 hours, trypan blue assay
Method: 1×10^5 cells of colorectal cancer cell lines HCT116, SW480 and DLD-1 cell (ATCC, American Type Culture Collection) were cultured overnight in a 6-well plate, and then were washed with PBS, and were cultured in a culture medium treated with niclosamide by each concentration (0 μM, 0.125 μM, 0.25 μM, 0.5 μM, 1 μM, 2 μM, 5 μM and 10 μM) for 48 hours. Apoptosis was measured with trypan blue assay and cell viability was calculated by an equation [1−(number of dead cells/total number of cells)].

intestinal adenoma = experiment: Adenoma formation in APC-MIN mice model; type: in vivo
Method: In addition, in order to confirm the therapeutic effect of niclosamide in vivo, the effect of niclosamide affecting on adenoma formation in APC-MIN (multiple intestinal neoplasia, APCΔ850) mice model was confirmed.
APC-MIN mice were prepared by crossbreeding of wild-type C57BL/6J (APC+/+) females and MIN C57BL/6J (APCMin/+) males, and APC-MIN descendants were randomly assigned in subgroups at 3 weeks age by identifying with PCR-based assay. A vehicle or niclosamide (50 mg/kg) was intraperitoneally injected daily (6 days/week), and mice were observed daily, and the weight was measured twice a week. After the end of 14 weeks, mice were sacrificed and the whole intestine was collected and intestinal flakes were opened longitudinally with scissors, and were washed with saline and were unfolded, and then tissues were obtained. The tissues were fixed with 10% formalin for 24 hours and were washed with 70% alcohol. The fixed intestinal tissues were observed using a stereomicroscope, and the size of adenoma (small, <1 mm; medium 1˜3 mm; large >3 mm) was discriminated and counted for each mouse. In case of oral administration, APC-MIN mice ingested niclosamide mixed with 15% sugar gel vehicle daily (6 days/week) for 14 weeks. The number and size of adenoma were measured with a stereomicroscope.

Snail, E-cadherin [4] = experiment: Snail western blot and E-cadherin dual luciferase assay in colorectal cancer cells; type: cell-based; settings: as concentration increased
Text: In order to confirm whether niclosamide induced snail-mediated EMT recovery, beta-catenin (β-catenin) expression and TCF/LEF reporter (Topflash) activity change, and Snail and E-cadherin protein expression were confirmed.
Through the western blot, Snail expression change was confirmed, and through the dual luciferase assay system, the expression of E-cadherin protein was confirmed.

[5] = molecular target: T1, recombinant GSK3 beta - Axin peptide interaction (Homo sapiens, UniProt P49841); experiment: Competitive binding of FITC-linked 19-mer Axin peptide to recombinant GSK3 (fluorometry); settings: 2 hours, Ni-Ti beads
T1 construct: made in house; host or cells: Sf9 insect cells (GSK3 beta); The peptide was synthesized by Peptron
T1 sequence (P49841 whole entry): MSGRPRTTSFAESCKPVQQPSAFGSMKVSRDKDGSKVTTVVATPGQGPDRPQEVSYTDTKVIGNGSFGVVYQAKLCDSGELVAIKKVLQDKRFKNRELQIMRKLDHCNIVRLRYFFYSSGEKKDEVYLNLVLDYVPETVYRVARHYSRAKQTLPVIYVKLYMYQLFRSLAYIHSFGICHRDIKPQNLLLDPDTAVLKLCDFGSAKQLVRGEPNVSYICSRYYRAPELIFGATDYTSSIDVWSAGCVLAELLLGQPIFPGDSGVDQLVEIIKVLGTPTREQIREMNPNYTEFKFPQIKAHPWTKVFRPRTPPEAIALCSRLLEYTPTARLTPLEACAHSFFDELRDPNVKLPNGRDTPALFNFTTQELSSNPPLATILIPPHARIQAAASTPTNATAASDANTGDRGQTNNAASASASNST
Text: Since it was disclosed that the hydrophobic residues of alpha helix of Axin were accumulated to the hydrophobic groove formed by the C-terminal loop of GSK3, in the result of structural analysis of Axin-GSK3 binding announced in the past (Dajani R et al., EMBO J. 22:494-501, 2003), the present inventors hypothesized that niclosamide binds to the hydrophobic groove of GSK3 and interferes with the function of Axin, and in order to confirm it, they designed in vitro analysis to confirm competitive inhibition by niclosamide of recombinant GSK3 which binds to a 19-mer FITC-linked Axin peptide.
His-tagged recombinant GSK3 beta was obtained from sf9 insect cells by the known method (Lee D G, et al. Nat Commun. 5:4423, 2014). The FITC-linked 19-mer Axin peptide known to bind to GSK3 as amphipathic alpha-helix (Axin1, 383-401, VEPQKFAEELIHRLEAVQR) was chemically synthesized (Peptron). In order to confirm competitive binding of the synthesized Axin peptide and niclosamide, His-tagged recombinant GSK3 and […] were treated with niclosamide for 2 hours, and were washed with PBS 3 times and then quantitative fluorometry was performed using […]. The fluorescence strength was shown in proportion to the fluorescence strength obtained in the negative control group from 3 times of experiments.

Snail, E-cadherin [6] = experiment: Immunoblot of Snail and E-cadherin in SW480 xenograft tumor; type: in vivo, mice; settings: 50 mg/kg, 200 mg/kg intraperitoneally for 3 days
Method: In order to investigate in vivo MoA of niclosamide controlling Snail-mediated EMT, through xenografts, the change of protein amount of Snail and E-cadherin in the tumor by niclosamide treatment was confirmed. The colorectal cancer cell line, SW480 cells (5×10^6) were subcutaneously injected to nude mice. When the tumor size became 500 mm^3 on average, mice were randomly divided into 3 groups, and a vehicle or niclosamide (50 mg/kg, 200 mg/kg) was intraperitoneally injected for 3 days. After sacrificing mice, the tumor tissue part was separated using Pro-prep protein extraction solution (#17081, Intron), and the amount of protein of Snail and E-cadherin in the tumor sample was measured by immunoblot assay.

[7] = system: TCF/LEF transcriptional activity induced by mutant APC; experiment: TCF/LEF transcriptional activity in 293 cell transformed by mutant APC; type: cell-based; settings: 0, 0.125, 0.25, 0.5 μM, 24 hours
Method: Based on the results of Examples 2-5 that niclosamide inhibited Wnt activity and EMT through Axin-GSK3 inhibition, whether niclosamide could attenuate the TCF/LEF transcriptional activity induced by mutant APC was confirmed.
After transforming the mutant APC expression vector, pCMV-neo-Bam APC 1-1309 (#16508, Addgene) or pCMV-neo-BamAPC 1-1941 (#16510, Addgene) and Topflash reporter vector to 293 cell (ATCC), niclosamide (0 μM, 0.125 μM, 0.25 μM and 0.5 μM) was treated for 24 hours. The TCF/LEF transcriptional activity was quantified by measuring the luciferase activity as same as Example 2.

[8] = orally administered for 14 weeks

Question: For `O=C(Nc1ccc([N+](=O)[O-])cc1Cl)c1cc(Cl)ccc1O` [niclosamide], which “potential of movements of colorectal cancer cells” value [1] is on record?
Answer: Its value is “largely reduced”.

Question: And the TCF/LEF transcriptional activity [2]?
Answer: The TCF/LEF transcriptional activity was “reduced”.

Question: What about the apoptosis ([3]; nM concentration) of the same compound?
Answer: The apoptosis was “did not occur”.

Question: And the “death of colorectal cells” value ([3]; μM concentration level)?
Answer: Its value is “induced death”.

Question: And the body weight (intestinal adenoma; intraperitoneal 50 mg/kg daily, 14 weeks)?
Answer: Its body weight is “did not change”.

Question: And the intestinal adenoma (intestinal adenoma; intraperitoneal 50 mg/kg daily, at 14 weeks)?
Answer: The intestinal adenoma was “significantly reduced”.

Question: What about the “condition of experimental animal” value (intestinal adenoma; [8]) of the same compound?
Answer: The value was “stable during the drug treatment”.

Question: And the intestinal adenoma formation (intestinal adenoma; [8])?
Answer: Its intestinal adenoma formation is “significantly inhibited”.

Question: And the “E-cadherin (promoter activity)” value (Snail, E-cadherin [4]; dual luciferase assay)?
Answer: The value was “increased”.

Question: And the “expression of Snail” value (Snail, E-cadherin [4]; western blot)?
Answer: Its value is “reduced”.

Question: What about the “interaction between recombinant GSK3 and synthesized Axin peptide” value [5] of the same compound?
Answer: The value was “inhibited in proportion to the administration concentration”.

Question: What about the “amount of E-cadherin in tumor” value (Snail, E-cadherin [6]) of the same compound?
Answer: Its value is “increased”.

Question: And the “presence of Snail in tumor” value (Snail, E-cadherin [6])?
Answer: Its value is “reduced”.

Question: And the “TCF/LEF transcriptional activity increased by mutant APC” value [7]?
Answer: The value was “reduced”.
